Reference: ChEMBL document CHEMBL1201862, “PubChem BioAssay data set” (2004)
The source made the active and inactive calls.

Tests used:
[1] = tested on: Streptococcus sp. 'group A'; experiment: Streptococcus pyogenes SK(-)GAS viability under kanamycin – luminescence, BacTiterGlo, confirmation, counter-screen for streptokinase expression inhibitor project, dose response (AID 1900); type: functional, organism-based
[2] = tested on: Vero; experiment: mammalian cell viability reduction – secondary assay, cytotoxicity control for West Nile virus antiviral project, dose response (AID 1650); type: functional; details: Chlorocebus sabaeus
[3] = target: T1, ATP-dependent translocase ABCB1 (Homo sapiens, UniProt P08183); experiment: P-gp JC-1 efflux blockade concentration-response – Jurkat-DNR cells, flow cytometry, set 2, dose response (AID 504569); type: functional; details: read-out: EC50_MICROM_;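 note: potency of pump inhibitors that raise cellular JC-1 green fluorescence up to the nicardipine level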
T1 sequence (P08183 whole entry): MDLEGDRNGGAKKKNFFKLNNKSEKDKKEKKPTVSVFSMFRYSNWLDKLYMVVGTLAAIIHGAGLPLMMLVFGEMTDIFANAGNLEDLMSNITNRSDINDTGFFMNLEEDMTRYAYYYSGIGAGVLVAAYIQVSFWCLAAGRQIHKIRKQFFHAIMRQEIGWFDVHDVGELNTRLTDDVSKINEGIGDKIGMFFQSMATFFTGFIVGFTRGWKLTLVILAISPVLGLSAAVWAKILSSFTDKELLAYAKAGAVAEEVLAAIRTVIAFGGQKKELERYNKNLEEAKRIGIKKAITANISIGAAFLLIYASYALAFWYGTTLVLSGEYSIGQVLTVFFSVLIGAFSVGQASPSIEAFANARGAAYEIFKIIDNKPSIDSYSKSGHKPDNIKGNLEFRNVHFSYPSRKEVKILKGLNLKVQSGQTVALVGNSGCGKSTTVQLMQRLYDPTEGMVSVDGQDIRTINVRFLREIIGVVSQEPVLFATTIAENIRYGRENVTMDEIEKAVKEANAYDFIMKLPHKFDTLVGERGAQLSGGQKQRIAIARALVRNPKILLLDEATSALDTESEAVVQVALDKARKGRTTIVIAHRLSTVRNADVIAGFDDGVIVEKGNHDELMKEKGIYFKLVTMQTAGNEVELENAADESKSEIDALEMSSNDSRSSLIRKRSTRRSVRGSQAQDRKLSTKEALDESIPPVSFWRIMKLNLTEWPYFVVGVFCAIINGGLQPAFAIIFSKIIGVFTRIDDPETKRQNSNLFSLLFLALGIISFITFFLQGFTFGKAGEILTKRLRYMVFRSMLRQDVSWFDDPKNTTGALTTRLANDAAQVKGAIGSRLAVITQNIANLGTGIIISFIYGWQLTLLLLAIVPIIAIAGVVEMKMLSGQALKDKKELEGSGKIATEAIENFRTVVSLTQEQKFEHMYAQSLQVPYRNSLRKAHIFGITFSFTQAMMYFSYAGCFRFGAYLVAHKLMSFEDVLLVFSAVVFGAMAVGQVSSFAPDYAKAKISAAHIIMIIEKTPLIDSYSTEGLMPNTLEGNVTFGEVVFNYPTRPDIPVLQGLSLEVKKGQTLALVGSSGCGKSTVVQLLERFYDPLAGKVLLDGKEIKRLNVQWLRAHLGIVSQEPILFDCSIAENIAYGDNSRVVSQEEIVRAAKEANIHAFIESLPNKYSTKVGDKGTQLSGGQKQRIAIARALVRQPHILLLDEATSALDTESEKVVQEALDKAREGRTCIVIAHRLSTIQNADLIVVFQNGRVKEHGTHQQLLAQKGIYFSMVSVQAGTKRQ

[4] = tested on: Streptococcus; experiment: GAS UMAA2166 growth inhibition – luminescence, BacTiterGlo, counter-screen for streptokinase expression inhibitor project, dose response (AID 1915); type: functional, organism-based;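 note: potency for reduction of bacterial viability or growth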
[5] = target: T1, ATP-dependent translocase ABCB1; experiment: inhibition of BCRP-mediated JC-1 efflux – Ig-MXP3 cells, flow cytometry, set 2, dose response (AID 504566); type: functional; details: read-out: EC50_MICROM_;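 note: flow cytometry median green fluorescence of retained JC-1 dye; potency of efflux pump inhibition measured as rising substrate retention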
[6] = target: T2, Streptokinase A (Streptococcus pyogenes serotype M1, UniProt P10520); experiment: viability-normalized secreted streptokinase activity reduction – plasminogen activation absorbance, OD405, dose response (AID 1914); type: functional, Streptococcus pyogenes M1 GAS;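 note: secreted streptokinase activity via plasminogen activation per viability signal from cell pellet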
T2 sequence (P10520 whole entry): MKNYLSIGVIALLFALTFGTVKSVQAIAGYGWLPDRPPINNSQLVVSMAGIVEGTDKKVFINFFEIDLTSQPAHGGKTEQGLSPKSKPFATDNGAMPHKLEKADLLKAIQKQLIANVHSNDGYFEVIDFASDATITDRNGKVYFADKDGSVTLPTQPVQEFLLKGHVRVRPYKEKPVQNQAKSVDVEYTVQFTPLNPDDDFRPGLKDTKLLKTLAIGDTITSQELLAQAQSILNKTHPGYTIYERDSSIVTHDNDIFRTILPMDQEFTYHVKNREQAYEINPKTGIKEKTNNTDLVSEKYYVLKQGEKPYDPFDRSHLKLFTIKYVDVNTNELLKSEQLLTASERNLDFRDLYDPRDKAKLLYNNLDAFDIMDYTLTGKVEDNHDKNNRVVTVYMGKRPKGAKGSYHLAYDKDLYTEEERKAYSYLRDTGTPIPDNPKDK

[7] = target: T3, Nuclear receptor subfamily 0 group B member 1 (Homo sapiens, UniProt P51843); experiment: Luminescence-based cell-based high throughput dose response assay for inhibitors of the orphan nuclear receptor subfamily 0, group B, member 1 (DAX1; NR0B1). [Related pubchem assays (depositor defined):AID504766, AID504790]; type: functional
T3 sequence (P51843 whole entry): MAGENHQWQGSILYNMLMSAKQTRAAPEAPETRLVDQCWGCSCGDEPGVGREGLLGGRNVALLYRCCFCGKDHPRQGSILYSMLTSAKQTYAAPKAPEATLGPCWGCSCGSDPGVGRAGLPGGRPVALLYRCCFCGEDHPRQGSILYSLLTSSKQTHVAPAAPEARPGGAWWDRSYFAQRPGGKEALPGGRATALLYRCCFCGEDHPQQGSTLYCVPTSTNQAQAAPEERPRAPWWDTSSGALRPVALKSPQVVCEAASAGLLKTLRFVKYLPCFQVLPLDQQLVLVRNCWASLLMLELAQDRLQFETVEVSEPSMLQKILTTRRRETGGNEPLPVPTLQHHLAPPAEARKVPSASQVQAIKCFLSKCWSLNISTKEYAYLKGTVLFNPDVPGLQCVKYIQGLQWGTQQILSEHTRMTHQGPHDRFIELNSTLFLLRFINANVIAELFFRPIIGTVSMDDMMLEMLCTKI

[8] = tested on: HEK293; experiment: cells; type: functional, cell-based; details: Homo sapiens
[9] = tested on: HEK293; experiment: cells; type: functional, cell-based; details: Homo sapiens; remark: listed apart in the source
[10] = viability loss in HEK293 cells – cell-based, plate reader, cherry-picked samples, cytotoxicity control, dose response (AID 743446); type: functional
[11] = tested on: HEK293; experiment: cells; type: functional, cell-based; details: Homo sapiens; remark: listed apart in the source
[12] = target: T4, Protein RecA (Mycobacterium tuberculosis, UniProt P9WHJ3); experiment: Fluorescence Cell-Free Homogeneous Dose Retest to Identify Inhibitors of RecA-Intein Splicing Activity. [Related pubchem assays (depositor defined):AID2097, AID2223, AID489010, AID492950]; type: functional
T4 sequence (P9WHJ3 whole entry): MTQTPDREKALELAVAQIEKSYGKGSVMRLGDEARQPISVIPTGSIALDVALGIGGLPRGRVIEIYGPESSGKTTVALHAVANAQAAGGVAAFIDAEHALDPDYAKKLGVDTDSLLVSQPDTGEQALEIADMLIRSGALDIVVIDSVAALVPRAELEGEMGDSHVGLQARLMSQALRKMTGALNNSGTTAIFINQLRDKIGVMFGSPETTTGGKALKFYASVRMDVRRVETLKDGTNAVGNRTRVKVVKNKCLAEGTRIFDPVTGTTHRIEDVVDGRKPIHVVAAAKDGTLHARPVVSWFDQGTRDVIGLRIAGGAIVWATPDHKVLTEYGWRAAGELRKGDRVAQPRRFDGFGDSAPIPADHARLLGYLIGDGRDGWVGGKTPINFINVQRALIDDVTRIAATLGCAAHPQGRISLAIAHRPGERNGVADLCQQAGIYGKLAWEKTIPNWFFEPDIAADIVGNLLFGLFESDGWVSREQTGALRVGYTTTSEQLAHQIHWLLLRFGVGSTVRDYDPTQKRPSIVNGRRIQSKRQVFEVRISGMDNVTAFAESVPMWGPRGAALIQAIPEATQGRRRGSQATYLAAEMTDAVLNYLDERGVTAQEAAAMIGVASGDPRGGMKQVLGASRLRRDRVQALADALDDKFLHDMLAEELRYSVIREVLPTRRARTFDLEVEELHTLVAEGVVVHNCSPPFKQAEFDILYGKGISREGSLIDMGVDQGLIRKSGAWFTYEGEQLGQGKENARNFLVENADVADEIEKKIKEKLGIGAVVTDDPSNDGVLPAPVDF

[13] = blockers of bursicon-stimulated LGR2 cAMP reporter – cell-based, HEK293, CRE-luciferase reporter, cherry pick, set 2, dose response (AID 743343); type: functional;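 note: transfected cells were stimulated with diluted bursicon conditioned medium after compound addition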
[14] = blockade of melanocortin 4 receptor signaling – cell-based, plate reader, cherry pick, counter-screen for LGR2 antagonist project, dose response (AID 743444); type: functional;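 note: transfected HEK 293 cells stimulated with alpha-MSH peptide; potency of inhibitors of the alpha-MSH evoked signal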
[15] = toxicity toward HepG2 liver cells – cell-based, plate reader, cherry-pick, antagonist series, cytotoxicity control, dose response (AID 743416); type: functional
[16] = target: T5, Replicative DNA helicase DnaB (Mycobacterium tuberculosis, UniProt P9WMR3); experiment: DnaB intein splicing inhibitors, dose response, biochemical, cell-free fluorescence (AID 449749); type: functional
T5 sequence (P9WMR3 whole entry): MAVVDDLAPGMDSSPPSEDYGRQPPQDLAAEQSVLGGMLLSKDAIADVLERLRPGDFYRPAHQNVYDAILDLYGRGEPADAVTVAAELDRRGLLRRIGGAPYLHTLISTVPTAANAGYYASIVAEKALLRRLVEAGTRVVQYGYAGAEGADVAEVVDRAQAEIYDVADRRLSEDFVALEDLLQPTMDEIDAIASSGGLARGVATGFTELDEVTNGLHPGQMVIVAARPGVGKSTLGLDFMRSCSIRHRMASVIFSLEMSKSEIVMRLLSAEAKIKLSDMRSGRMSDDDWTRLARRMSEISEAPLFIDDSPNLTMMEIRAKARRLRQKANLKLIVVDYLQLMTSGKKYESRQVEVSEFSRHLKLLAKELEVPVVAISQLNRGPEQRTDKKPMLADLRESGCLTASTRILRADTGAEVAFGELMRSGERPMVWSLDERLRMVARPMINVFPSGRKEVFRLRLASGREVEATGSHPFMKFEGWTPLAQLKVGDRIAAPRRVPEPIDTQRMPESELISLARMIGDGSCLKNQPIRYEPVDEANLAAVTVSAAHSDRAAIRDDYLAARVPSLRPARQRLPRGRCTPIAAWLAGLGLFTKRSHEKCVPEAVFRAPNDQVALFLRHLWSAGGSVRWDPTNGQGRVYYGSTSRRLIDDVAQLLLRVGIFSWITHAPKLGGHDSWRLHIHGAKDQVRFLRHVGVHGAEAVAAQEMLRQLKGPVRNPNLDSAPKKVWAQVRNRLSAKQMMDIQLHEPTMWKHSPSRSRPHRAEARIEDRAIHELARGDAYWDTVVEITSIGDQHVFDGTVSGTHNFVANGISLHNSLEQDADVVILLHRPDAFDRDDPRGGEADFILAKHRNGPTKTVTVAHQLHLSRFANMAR

[17] = A549 cell cytotoxicity, dose response, cytotoxicity control, plate reader, cherry-pick, antagonist series (AID 743412); type: functional, cell-based
[18] = tested on: HEK293; experiment: inhibition of NOD1-driven NF-kB reporter – cell-based, luminescence, uHTS, primary screen (AID 1578); type: functional; details: Homo sapiens
[19] = THP-1 cell cytotoxicity, dose response, cytotoxicity control for non-replicating M. tuberculosis project (AID 489025); type: functional
[20] = tested on: HEK293; experiment: NOD2 signaling inhibitors in MDP-stimulated cells, cell-based, uHTS, luminescence (AID 2001); type: functional; details: Homo sapiens
[21] = microbe, parasite or virus in culture; type: functional; details: Mycobacterium tuberculosis
[22] = cells; type: functional
[23] = target: T6, Microphthalmia-associated transcription factor (Homo sapiens, UniProt O75030); experiment: reducers of TRPM1 reporter luminescence, concentration series – cell-based, SK-MEL-5, cherry-picked, set 3, MITF inhibitor project, dose response (AID 493073); type: functional;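 note: SK-MEL-5 melanoma cells with luciferase driven by the MITF target TRPM1 promoter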
T6 sequence (O75030 whole entry): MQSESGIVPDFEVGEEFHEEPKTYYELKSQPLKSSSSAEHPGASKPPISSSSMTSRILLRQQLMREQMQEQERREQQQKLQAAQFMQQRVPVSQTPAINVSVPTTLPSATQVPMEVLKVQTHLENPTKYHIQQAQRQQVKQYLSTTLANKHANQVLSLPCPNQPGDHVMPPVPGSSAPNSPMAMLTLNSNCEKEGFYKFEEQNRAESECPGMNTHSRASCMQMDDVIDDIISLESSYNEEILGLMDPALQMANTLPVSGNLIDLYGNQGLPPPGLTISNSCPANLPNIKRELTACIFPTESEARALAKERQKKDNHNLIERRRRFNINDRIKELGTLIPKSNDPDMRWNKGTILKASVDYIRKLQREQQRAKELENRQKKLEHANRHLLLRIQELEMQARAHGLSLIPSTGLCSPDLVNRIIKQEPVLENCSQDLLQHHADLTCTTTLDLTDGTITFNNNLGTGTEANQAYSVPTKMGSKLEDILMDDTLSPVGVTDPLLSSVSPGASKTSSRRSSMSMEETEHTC

[24] = target: T7, Low molecular weight phosphotyrosine protein phosphatase (Homo sapiens, UniProt P24666); type: functional; details: read-out: IC50_Mean
T7 sequence (P24666 whole entry): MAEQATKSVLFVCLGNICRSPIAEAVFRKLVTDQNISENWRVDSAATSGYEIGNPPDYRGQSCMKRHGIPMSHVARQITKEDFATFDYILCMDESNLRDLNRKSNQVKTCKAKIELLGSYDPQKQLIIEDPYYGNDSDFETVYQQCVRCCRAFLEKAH

[25] = target: T7, Low molecular weight phosphotyrosine protein phosphatase; type: functional; details: read-out: IC50_Mean; remark: listed apart in the source

SMILES: Cc1nn2c(N3CCN(C(=O)c4ccco4)CC3)cc(C(C)(C)C)nc2c1-c1ccccc1
- EC50 [1]: 3.59 µM (active)
- CC50 [2]: 42.1 µM (active)
- EC50 [3]: 11.1 µM (active)
- EC50 [4]: 22.1 µM (active)
- EC50 [5]: 6.22 µM (active)
- EC50 [6]: 8.62 µM (active)

SMILES: CN(Cc1ccc(C(C)(C)C)cc1)C(=O)C1CCN(C(=O)Nc2ccccc2)CC1
- IC50 [7]: > 67.5 µM (inactive)
- IC50 [8]: > 67.5 µM (inactive)

SMILES: CC(=O)c1ccc(Sc2nnnn2-c2ccccc2)c([N+](=O)[O-])c1
- IC50 [9]: > 20 µM (inactive)
- AC50 [10]: 33.2 µM (active)
- IC50 [11]: 2.12 µM (active)
- EC50 [12]: 14.5 µM (active)
- AC50 [13]: 10.8 µM (active)
- AC50 [14]: 9.52 µM (active)
- AC50 [15]: > 52 µM (inactive)
- AC50 [16]: 5.34 µM (active)
- AC50 [17]: 49.7 µM (active)
- EC50 [18]: 14.3 µM (active)
- CC50 [19]: 14.9 µM (active)
- IC50 [20]: 3.13 µM (active)
- CC50 [21]: > 40 µM (active)
- IC50 [22]: 26.2 µM (active)
- AC50 [23]: 7.82 µM (active)

SMILES: COc1cccc(C(=O)NC(=O)Nc2cc(C)[nH]n2)c1
- IC50 [7]: > 67.5 µM (inactive)
- IC50 [8]: > 67.5 µM (inactive)

SMILES: CNc1nc2c(-c3ccc(Cl)cc3)nnn2c2ccccc12
- IC50 [24]: 11.1 µM (active)
- IC50 [25]: 3.14 µM (active)

SMILES: Cc1cccnc1NC(=O)C(C)N1C(=O)c2ccccc2C1=O (stereo not drawn)
- IC50 [7]: > 67.5 µM (inactive)
- IC50 [8]: > 67.5 µM (inactive)

SMILES: Cc1cc(N2CCN(C(=O)c3ccco3)CC2)n2nc(-c3ccc(F)cc3)cc2n1
- EC50 [3]: 10.8 µM (active)
- EC50 [5]: 2.87 µM (active)

SMILES: COc1ccc(-c2cc(=O)c3ccccc3o2)cc1 [4'-METHOXYFLAVONE]
- IC50 [7]: > 67.5 µM (inactive)
- IC50 [8]: > 67.5 µM (inactive)
